We go through ten molecules from patent US11377444B2, “Pyridopyrimidine compounds acting as mTORC 1/2 dual inhibitors” (MEDSHINE DISCOVERY INC., priority 2017, dated 2022).

Like-named read-outs stand apart in the source and are kept apart here.

The subject of one data set is HT-29 cell. Kind of data set: Cell proliferation inhibitory activity (Cell-Titer-Glo), HT-29. The data set is classed as cell-based. The note with it: 3 days incubation. The source says:
(§1) Experimental Embodiment 2: Evaluation of Cell Proliferation Inhibitory Activity
(§2) Experiment objective: To detect cell proliferation inhibitory activity of the tested compounds.
(§3) Experimental principle: The luciferase in the Cell-Titer-Glo reagent produces oxyluciferin using luciferin, oxygen and ATP as reaction substrates, and releases energy in the form of light. Since the reaction of luciferase requires ATP, the total amount of light generated by the reaction is proportional to the total amount of ATP that reflects cell viability.
(§4) Cell lines: MCF-7 cell line […], HT-29 cell line (ATCC-HTB-38), OE21 (ECACC-96062201), NCI-N87 cell line (ATCC-CRL-5822)
(§5) Cell culture medium: (RPMI 1640 culture medium (Invitrogen #1868546; 10% serum Invitrogen #1804958; L-glutamine 1×, Invitrogen #1830863; dual antibiotic Hyclone #J170012))
(§6) Cell Titer-Glo® Luminescent Cell Viability Assay Kit (Promega #G7573)
(§7) The cells were inoculated in a 384- or 96-well plate with a density of 1000 cells per well and 25 μL per well according to the instructions of the cell inoculating plate. The edge wells were not inoculated with cells, and was supplemented with […].
(§8) (i) The mother solution of the compound was 10 mM, and diluted with DMSO to an initial concentration of 4 mM. The compound was added to the compound mother solution, 9 μL per well.
(§9) (ii) The compound was diluted with ECHO liquid-handling workstation. Each well of the cell plate was added with 125 nL compound. Each well of the cell wells in 2nd column and 23rd column was added with 125 nL DMSO, and each of the PBS wells in 1st column and 24th column was added with 125 nL DMSO.
(§10) (iii) Each well of the cell plate was supplemented with 25 μL culture medium, the final volume in each well of the cell plate was 50 μL, […] 3 times dilution, 10 concentrations, each concentration was duplicated in left and right wells, the final DMSO concentration was 0.25%.
(§11) 2.3. After addition of the compound, centrifugation was performed at 1000 rpm for 1 min, and the cell plate was placed in a 37° C., 5% CO2 incubator for 3 days.
(§12) The cell plate was taken out from the incubator and equilibrated at room temperature for 30 minutes. 25 μL Cell-Titer-Glo reagent was added to each well, shaken for one minute to mix thoroughly, centrifuged at 1000 rpm for 1 minute. After 10 minutes, the plate was read on PerkinElmer Envision with a […] reading time was set at 0.2 second.

The target in data set [1] is T1, mTOR kinase (mTORC1 and mTORC2 kinase complex) (Homo sapiens, UniProt P42345).
T1 construct: purchased DiscoverX; host or cells: HEK-293
Put plainly: In vitro evaluation of mTOR kinase inhibitory activity (DiscoverX ligand-bead competition binding, qPCR readout). The protocol: Experimental Embodiment 1: In Vitro Evaluation of mTOR Kinase Inhibitory Activity This experiment was performed by DiscoverX. All materials and methods were obtained from DiscoverX.
Kinase activity analysis.
1. Labeled mTOR kinase was stably expressed in HEK-293 cells.
2. Streptavidin magnetic beads were treated with biotinylated small molecule ligands at room temperature for 30 minutes to produce affinity resin for kinase analysis;
3. Ligand beads were blocked with excess biotin and washed with buffer (1% bovine serum albumin, […]) to remove unbound ligand and non-specifically bound ligand;
4. The assembly of kinase and ligand and affinity beads, and the binding reaction between the compound and the three were performed in buffer (20% blocking buffer, 0.17x phosphate buffer, 0.05% Tween […]);
5. The test compounds were dissolved in dimethyl sulfoxide;
6. All test compounds were dissolved in DMSO, and then directly diluted […]
7. The solution was placed in a 384-well polypropylene plate, wherein the volume of each well was 0.02 mL;
8. The plate was shaked for an hour at room temperature;
9. The plate was washed with buffer (1× PBS, 0.05% Tween 20);
10. The affinity beads were resuspended in buffer (1× PBS, 0.05% Tween […] non-biotin affinity ligand) and incubated at room temperature for 30 minutes;
11. The kinase concentration in the eluate was deteced by qPCR.
On the technique in general: Real-time PCR tracks product formation cycle by cycle.

Data set [2] in a line: Pharmacokinetic evaluation in plasma after IV and PO administration. The data set is classed as in vivo. The note with it: female Balb/c mice; for AUC(0-inf) / AUC(0-t) / C0 / clearance / half-life / MRT inf / MRT last / Vd / Cmax / Tmax / bioavailability: mouse; for MRT inf: read-out: MRT0-inf; for MRT last: read-out: MRT0-last; for Vd: read-out: Vdss. The protocol: Experimental Embodiment 3: Pharmacokinetic Evaluation
The test compound was mixed with […] (Cremophor EL), vortexed and sonicated to prepare a 1 mg/mL near-clear solution, which was filtered with a microporous filter membrane for future use. Female Balb/c mice of 18 to 20 grams were selected and the solution of the test compound was administered intravenously at a dose of 1 or 2 mg/kg. The test compound was mixed with an aqueous solution of 1% Tween 80, 9% polyethylene glycol 400, and 90% water, vortexed and sonicated to prepare 1 mg/mL near-clear solution, which was filtered with a microporous filter membrane for future use.
Female Balb/c mice of 18 to 20 grams were selected, and the solution of the test compound was orally administered at a dose of 2 or 10 mg/kg. The whole blood was collected at a certain time, and prepared into plasma. The drug concentration was analyzed by LC-MS/MS, and the pharmacokinetic parameters were calculated using Phoenix WinNonlin software (Pharsight Corporation, USA).

A further data set has as its system N87 cell. Kind of data set: Cell proliferation inhibitory activity (Cell-Titer-Glo), N87. The data set is classed as cell-based. The note with it: 72 h; 3 days incubation.
Source text: as §1, §2, §3, §4, §5, §6, §7, §8, §9, §10, §11, §12

For the next data set, the system named is MCF-7 cell. Kind of data set: Cell proliferation inhibitory activity (Cell-Titer-Glo), MCF-7. It is filed as cell-based. The note with it: Homo sapiens, MCF7, 72 h; 3 days incubation.
Source text: as §1, §2, §3, §4, §5, §6, §7, §8, §9, §10, §11, §12

What is called IC50 is the concentration that inhibits the measured activity by half. For orientation: Kd means the constant that tells how readily two partners part at equilibrium. Lower therefore signals higher affinity. `CNC(=O)c1cccc(-c2ccc3c(N4CCOCC4C)nc(N4CCOC5(CCOC5)C4)nc3n2)c1` (single isomer, unassigned) [Embodiment 32-1] had an IC50 in the data set on HT-29 cell (Homo sapiens, HT-29, 72 h) of 744 nM. For the same molecule, binding in data set [1] was characterised by a dissociation constant (Kd) of 0.79 nM.

The molecule `CNC(=O)c1cccc(-c2ccc3c(N4CCOCC4C)nc(N4CCOC5(CCOC5)C4)nc3n2)c1` (single isomer, unassigned) [Embodiment 32-2] gave an IC50 with HT-29 cell of 1410 nM. For the same molecule, binding in data set [1] was characterised by a dissociation constant (Kd) of 1.5 nM.

For the molecule `CNC(=O)c1cccc(-c2ccc3c(N4CCOCC4C)nc(N4CCOC5(CC(O)C5)C4)nc3n2)c1` (single isomer, unassigned) [Embodiment 33-1], the IC50 in the data set with HT-29 cell (Homo sapiens, HT-29, 72 h) came to 1970 nM. This molecule also registered a Kd in data set [1] of 0.78 nM.

`CNC(=O)c1cccc(-c2ccc3c(N4CCOCC4C)nc(N4CCOC5(CC(O)C5)C4)nc3n2)c1` (single isomer, unassigned) [Embodiment 33-2]: inhibition in the data set with HT-29 cell was half-maximal at 1250 nM (IC50). For the same molecule, binding in data set [1] was put at a Kd of 0.38 nM.

In the data set with HT-29 cell (Homo sapiens, HT-29, 72 h), `CNC(=O)c1cccc(-c2ccc3c(N4CCOCC4C)nc(N4CCOC5(CC(OC)C5)C4)nc3n2)c1` (single isomer, unassigned) [Embodiment 34-1] yielded an IC50 of 1050 nM. In data set [1], this molecule showed an equilibrium dissociation constant (Kd) of 1 nM.

In the data set on HT-29 cell, `CNC(=O)c1cccc(-c2ccc3c(N4CCOCC4C)nc(N4CCOC5(CC(OC)C5)C4)nc3n2)c1` (single isomer, unassigned) [Embodiment 34-2] came in with an IC50 of 833 nM. The molecule also showed a Kd in data set [1] of 0.73 nM.

For orientation: AUC(0-inf) means total exposure, with the tail of the curve extrapolated. A higher AUC(0-inf) goes with high exposure. A word on the AUC(0-t): it is exposure summed from dosing to a finite time, without extrapolation to infinity. One may read the half-life as how long it takes for the measured level to halve. A higher half-life goes with slow loss. As usually defined, the Cmax is the highest concentration seen after dosing. As usually defined, the Tmax is the time from dosing to the highest level. One may read the bioavailability as the share of a dose that reaches the circulation, judged against a reference dose that is usually intravenous. Lower therefore signals little systemic uptake. For `C[C@H]1COC2(CCC2)CN1c1nc(N2CCOC[C@@H]2C)c2ccc(-c3cccc(C(N)=O)c3)nc2n1` [Embodiment 35], in data set [2] (IV 1 mg/kg), the AUCExtra came out at 0.246%, the AUMCExtra came out at 1.59%, the Tlast was found to be 12.0 h and the AUC(0-inf) was 7.4 µM·h. Moreover, in data set [2] (IV 1 mg/kg), the AUC(0-t) is 7.38 µM·h, the C0 worked out at 2.49 µM, the clearance is 5.07 mL/min/kg and the half-life is 1.38 h. Also, in data set [2] (IV 1 mg/kg), the MRT inf was 2.16 h, the MRT last came out at 2.13 h and the Vd turned out to be 0.657 L/kg. In data set [2] (PO 2 mg/kg), the AUCExtra came to 1.84%, the AUMCExtra was found to be 8.59%, the Tlast was 8.00 h and the AUC(0-inf) turned out to be 8.75 µM·h. Moreover, in data set [2] (PO 2 mg/kg), the area under the curve AUC(0-t) was found to be 8.59 µM·h, the maximum concentration (Cmax) is 3.49 µM, the Tmax was 0.25 h and the bioavailability came out at 56.1%. In addition, in data set [2] (PO 2 mg/kg), the half-life was 1.33 h, the MRT inf came out at 2.13 h and the MRT last was determined as 1.98 h. Besides, in the data set on N87 cell, the IC50 was 44 nM. Also, 105 nM corresponded to half-maximal inhibition in the data set on MCF-7 cell (IC50). Besides, in data set [1], binding was put at a Kd of 0.4 nM.

Take `COc1ccc(-c2ccc3c(N4CCOC[C@@H]4C)nc(N4CCOC5(CC5)C4)nc3n2)cc1CO` [Embodiment 54]: in the data set with N87 cell, the concentration for half-maximal inhibition (IC50) amounted to 119 nM.

In data set [2] (IV 1 mg/kg), `CNC(=O)c1cc(-c2ccc3c(N4CCOC[C@@H]4C)nc(N4CCOC5(CC5)C4)nc3n2)ccc1OC` [Embodiment 55] returned an AUCExtra of 0.0522%, an AUMCExtra of 0.540%, a Tlast of 12 h and an AUC(0-inf) of 9.47 µM·h. Besides, in data set [2] (IV 1 mg/kg), the AUC(0-t) is 9.46 µM·h, the C0 was 9.7 µM, the clearance amounted to 3.49 mL/min/kg and the half-life was 1.01 h. Also, in data set [2] (IV 1 mg/kg), the MRT inf is 1.3 h, the MRT last is 1.29 h and the Vd was found to be 0.272 L/kg. Moreover, in data set [2] (PO 2 mg/kg), the AUCExtra worked out at 0.0673%, the AUMCExtra was determined as 0.493%, the Tlast is given as 12.0 h and the AUC(0-inf) is 16.3 µM·h. For the same molecule, in data set [2] (PO 2 mg/kg), the AUC(0-t) was found to be 16.3 µM·h, the peak level (Cmax) was 7.73 µM, the Tmax was 0.5 h and the bioavailability was found to be 86.1%. Further, in data set [2] (PO 2 mg/kg), the half-life is 1.15 h, the MRT inf worked out at 1.86 h and the MRT last came out at 1.86 h. In the data set on N87 cell, this molecule showed an IC50 of 120 nM.

`COc1ccc(-c2ccc3c(N4CCOC[C@@H]4C)nc(N4CCOC5(CC5)C4)nc3n2)cc1C(N)=O` [Embodiment 56] registered an IC50 in the data set with N87 cell of 167 nM.
